According to patent publication US8198311B2, “Modulators of glucocorticoid receptor, AP-1, and/or NF-κB activity and use thereof” (Bristol-Myers Squibb Company, priority 2006, dated 2012):
Where two headings read alike, the source gives them in different places.

Assays:
[1] = test system: AP-1 induced transcriptional activity; assay: Cellular Transrepressional Assay (AP-1 luciferase reporter in A549 cells, PMA-activated); assay type: cell-based; details: pAP-1-Luc, 10 ng/ml PMA, read-out: AP-1 (EC50, nM) (Cellular Transrepression Assay)
Outline: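 A549 cells stably carrying a 7×AP-1-luciferase reporter, stimulated with 10 ng/ml PMA with or without compound (0.1 nM-40 μM) for 7 h. Luciferase luminescence read 10 min after reagent addition; repression is percentage decrease of PMA-alone signal, EC50 by curve fitting.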

[2] = molecular target: T1, human glucocorticoid receptor (Homo sapiens, UniProt P04150); assay: Glucocorticoid Receptor Binding Assay (I), fluorescence polarization competitor kit (Fluormone GS Red); details: purified human recombinant full-length GR
T1 construct: purified human recombinant full-length glucocorticoid receptor (2 nM); purchased Invitrogen Part # 2893
T1 sequence (P04150 1-777): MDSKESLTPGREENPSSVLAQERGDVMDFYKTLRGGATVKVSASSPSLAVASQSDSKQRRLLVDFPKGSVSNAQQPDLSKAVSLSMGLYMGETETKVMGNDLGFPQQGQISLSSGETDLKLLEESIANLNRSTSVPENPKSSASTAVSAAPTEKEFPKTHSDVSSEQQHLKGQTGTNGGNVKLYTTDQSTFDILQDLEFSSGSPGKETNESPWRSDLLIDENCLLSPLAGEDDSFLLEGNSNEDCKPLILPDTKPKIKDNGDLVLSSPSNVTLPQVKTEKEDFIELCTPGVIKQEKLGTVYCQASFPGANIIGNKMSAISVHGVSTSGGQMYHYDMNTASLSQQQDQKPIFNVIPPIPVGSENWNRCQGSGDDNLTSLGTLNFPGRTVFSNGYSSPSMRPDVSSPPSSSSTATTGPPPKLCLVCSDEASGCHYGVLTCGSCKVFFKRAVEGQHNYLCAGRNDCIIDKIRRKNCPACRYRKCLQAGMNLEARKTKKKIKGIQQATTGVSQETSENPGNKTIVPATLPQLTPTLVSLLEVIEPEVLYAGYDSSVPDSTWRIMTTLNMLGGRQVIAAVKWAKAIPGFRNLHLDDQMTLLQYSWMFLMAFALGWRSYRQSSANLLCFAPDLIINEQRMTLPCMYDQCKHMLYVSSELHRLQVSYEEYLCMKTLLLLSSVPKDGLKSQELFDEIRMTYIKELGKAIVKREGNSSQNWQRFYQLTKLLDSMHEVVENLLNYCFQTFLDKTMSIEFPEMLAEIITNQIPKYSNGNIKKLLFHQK
Outline: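 Fluorescence polarization competition: full-length recombinant human GR (2 nM) incubated with 1 nM Fluormone GS Red plus test compound (8.5E-05 to 5 μM) for 2 h at room temperature in the dark before FP read-out.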

[3] = molecular target: T2, human full-length glucocorticoid receptor (Homo sapiens, UniProt P04150); assay: Glucocorticoid Receptor Binding Assay (II), fluorescence polarization competitor kit (Fluormone GS1); details: cell lysate with recombinant human full-length GR
T2 construct: recombinantly expressed human full-length glucocorticoid receptor; purchased PanVera Co., Madison, Wis; P2816
T2 sequence (P04150 1-777): T1 sequence (P04150 1-777)
Method: In order to measure the binding of compounds on the glucocorticoid receptor a commercially available kit was used (Glucocorticoid receptor competitor assay kit, PanVera Co., Madison, Wis., P2816). Briefly, a cell lysate containing recombinantly expressed human full-length glucocorticoid receptor was mixed with a fluorescently labeled glucocorticoid (1 nM Fluormone GS1) in the presence or absence of test compound. After one hour at room temperature, the fluorescence polarization (FP) of the samples were measured. […] Test molecules were analyzed in the concentration range from 2.4 nM to 40 microMolar.

Row | SMILES | EC50 ([1]; Homo sapiens, A549, 7 h) [nM] | Ki [2] [nM] | Ki [3] [nM] | EC50 ([1]; 7 hours) [nM]
1 | CC(C)CC(c1ccc2c(cnn2-c2ccc(F)cc2)c1)C(C)(C)CNC(=O)NC1CC1 (centres unmarked) [Example 26, 1-cyclopropyl-3-(3-(1-(4-fluorophenyl)-1H-indazol-5-yl)-2,2,5-trimethylhexyl)urea] | 965 | 3.1 | 8.6 | 
2 | CC(O)C(C)(C)C(c1ccccc1)c1ccc2c(cnn2-c2ccc(F)cc2)c1 (mixture of isomers) [Example 119, 4-(1-(4-Fluorophenyl)-1H-indazol-5-yl)-3,3-dimethyl-4-phenylbutan-2-ol] | > 10000 | 53 | 26 | 
3 | CC(C)(CNC(=O)NCC(F)(F)F)[C@@H](c1ccccc1)c1ccc2c(cnn2-c2ccc(F)cc2)c1 [Example 8, (S)-1-(3-(1-(4-fluorophenyl)-1H-indazol-5-yl)-2,2-dimethyl-3-phenylpropyl)-3-(2,2,2-trifluoroethyl)urea] | 48 | 17 | 9 | 
4 | CC(C)CC(c1ccc2c(cnn2-c2ccc(F)cc2)c1)C(C)(C)CNC(=O)OCC(F)(F)F (centres unmarked) [Example 60, 2,2,2-trifluoroethyl 3-(1-(4-fluorophenyl)-1H-indazol-5-yl)-2,2,5-trimethylhexylcarbamate] | 234 | 41 | 24 | 
5 | CC(C)CC(c1ccc2c(cnn2-c2ccc(F)cc2)c1)C(C)(C)CNC(=O)NC(C)(C)CO (centres unmarked) [Example 29, 1-(3-(1-(4-fluorophenyl)-1H-indazol-5-yl)-2,2,5-trimethylhexyl)-3-(1-hydroxy-2-methylpropan-2-yl)urea] | 86 | 2.5 | 8 | 
6 | CC(C)CC(c1ccc2c(cnn2-c2ccc(F)cc2)c1)C(C)(C)CNC(=O)N1CCCC(C)(C)C1 (centres unmarked) [Example 30, N-(3-(1-(4-fluorophenyl)-1H-indazol-5-yl)-2,2,5-trimethylhexyl)-3,3-dimethylpiperidine-1-carboxamide] | > 10000 | 8.5 | 27 | 
7 | CC(C)(C(c1ccccc1)c1ccc2c(cnn2-c2ccc(F)cc2)c1)C(O)C1CC1 (centres unmarked) [Example 122, 1-cyclopropyl-3-(1-(4-fluorophenyl)-1H-indazol-5-yl)-2,2-dimethyl-3-phenylpropan-1-ol] | > 10000 | 37 | 34 | 
8 | CC(C)CC(c1ccc2c(cnn2-c2ccc(F)cc2)c1)C(C)(C)CNC(=O)N(C)C(C)(C)C (centres unmarked) [Example 31, 1-tert-butyl-3-(3-(1-(4-fluorophenyl)-1H-indazol-5-yl)-2,2,5-trimethylhexyl)-1-methylurea] | 394 | 28 | 19 | 
9 | CC(C)(CNC(=O)Cc1cccs1)[C@H](c1ccccc1)c1ccc2c(cnn2-c2ccc(F)cc2)c1 [Example 21, (R)-N-(3-(1-(4-fluorophenyl)-1H-indazol-5-yl)-2,2-dimethyl-3-phenylpropyl)-2-(thiophen-2-yl)acetamide] | 266 |  | 39 | 
10 | CC(C)CC(c1ccc2c(cnn2-c2ccc(F)cc2)c1)C(C)(C)CNC(=O)NC(C)(C)CN1CCCCC1 (centres unmarked) [Example 32, 1-(3-(1-(4-fluorophenyl)-1H-indazol-5-yl)-2,2,5-trimethylhexyl)-3-(2-methyl-1-(piperidin-1-yl)propan-2-yl)urea] | > 10000 | 73 | 452 | 
11 | CC(C)(C(=O)c1cccs1)C(c1ccccc1)c1ccc2c(cnn2-c2ccc(F)cc2)c1 (centres unmarked) [Example 127] | 5870 |  | 7.8 | 
12 | CCS(=O)(=O)NCC(C)(C)[C@@H](c1ccccc1)c1ccc2c(cnn2-c2ccc(F)cc2)c1 [Example 11, (S)-N-(3-(1-(4-fluorophenyl)-1H-indazol-5-yl)-2,2-dimethyl-3-phenylpropyl)ethanesulfonamide] | 29 |  | 16 | 
13 | CC(C)(C(c1ccccc1)c1ccc2c(cnn2-c2ccc(F)cc2)c1)C(C)(O)C(F)(F)F (mixture of isomers) [Example 128, 1,1,1-Trifluoro-4-(1-(4-fluorophenyl)-1H-indazol-5-yl)-2,3,3-trimethyl-4-phenylbutan-2-ol] | > 10000 |  | 16 | 
14 | CC(=O)C(C)(C)C(c1ccccc1)c1ccc2c(cnn2-c2ccc(F)cc2)c1 (centres unmarked) [Example 120, 4-(1-(4-Fluorophenyl)-1H-indazol-5-yl)-3,3-dimethyl-4-phenylbutan-2-one] | > 10000 |  | 21 | 
15 | CC(C)CC(c1ccc2c(cnn2-c2ccc(F)cc2)c1)C(C)(C)CNC(N)=O (centres unmarked) [Example 61, 1-(3-(1-(4-fluorophenyl)-1H-indazol-5-yl)-2,2,5-trimethylhexyl)urea] | 371 |  | 9.6 | 
16 | CC(C)(CNS(=O)(=O)CC(F)(F)F)C(c1ccccc1)c1ccc2[nH]ncc2c1 (stereo in doubt) [(R)-83, (S)-N-(3-(1H-indazol-5-yl)-2,2-dimethyl-3-phenylpropyl)-2,2,2-trifluoroethanesulfonamide] | > 10000 |  | 547 | 
17 | O=C(NCCC(c1ccccc1)c1ccc2c(cnn2-c2ccc(F)cc2)c1)C(F)(F)F (centres unmarked) [Example 112, 2,2,2-Trifluoro-N-(3-(1-(4-fluorophenyl)-1H-indazol-5-yl)-3-phenylpropyl)acetamide] | 95 |  | 11 | 
18 | CC(C)n1ncc2cc([C@H](c3ccccc3)C(C)(C)CNS(=O)(=O)CC(F)(F)F)ccc21 [Example 87, (S)—N-(2,2-Dimethyl-3-(1-isopropyl-1H-indazol-5-yl)-3-phenylpropyl)-2,2,2-trifluoroethanesulfonamide] | > 10000 |  | 33 | 
19 | CC(C)CC(c1ccc2c(cnn2-c2ccc(F)cc2)c1)C(C)(C)CNC(=O)NCC(F)(F)F (single isomer, unassigned) [Example 58A, 1-(3-(1-(4-fluorophenyl)-1H-indazol-5-yl)-2,2,5-trimethylhexyl)-3-(2,2,2-trifluoroethyl)urea] |  |  | 14 | > 10000
20 | CC(C)(COC(=O)NCC(F)(F)F)C(c1ccccc1)c1ccc2c(cnn2-c2ccc(F)cc2)c1 (centres unmarked) [Example 132, 3-(1-(4-Fluorophenyl)-1H-indazol-5-yl)-2,2-dimethyl-3-phenylpropyl 2,2,2-trifluoroethylcarbamate] | > 10000 |  | 28 | 
21 | CC(C)(CNC(=O)C(=O)O)[C@H](c1ccccc1)c1ccc2c(cnn2-c2ccc(F)cc2)c1 [Example 24, (R)-2-(3-(1-(4-fluorophenyl)-1H-indazol-5-yl)-2,2-dimethyl-3-phenylpropylamino)-2-oxoacetic acid] | > 10000 |  | 351 | 
22 | CC(C)(CNS(C)(=O)=O)[C@@H](c1ccccc1)c1ccc2c(cnn2-c2ccc(F)cc2)c1 [Example 6, (S)-N-(3-(1-(4-fluorophenyl)-1H-indazol-5-yl)-2,2-dimethyl-3-phenylpropyl)methanesulfonamide] | 47 |  | 4.9 | 
23 | CC(C)(CNC(=O)C(F)(F)C(F)(F)F)[C@@H](c1ccccc1)c1ccc2c(cnn2-c2ccc(F)cc2)c1 [Example 19, (S)-2,2,3,3,3-pentafluoro-N-(3-(1-(4-fluorophenyl)-1H-indazol-5-yl)-2,2-dimethyl-3-phenylpropyl)propanamide] | > 10000 |  | 11 | 
24 | CC(C)(C(c1ccccc1)c1ccc2c(cnn2-c2ccc(F)cc2)c1)C(O)(c1ccccc1)C(F)(F)F (centres unmarked) [Example 129, 1,1,1-Trifluoro-4-(1-(4-fluorophenyl)-1H-indazol-5-yl)-3,3-dimethyl-2,4-diphenylbutan-2-ol] | 202 |  | 26 | 
25 | CC(C)(CNc1nncs1)C(c1ccccc1)c1ccc2c(cnn2-c2ccc(F)cc2)c1 (centres unmarked) [Example 109, N-(3-(1-(4-Fluorophenyl)-1H-indazol-5-yl)-2,2-dimethyl-3-phenylpropyl)-1,3,4-thiadiazol-2-amine] | 43 |  | 9.2 | 
